“Also recorded” adds a separate entry of the source.
How the values were obtained:
PrP^Sc in ScN2a cells [1] = molecular target: T1, PrP^Sc in ScN2a cells (Mus musculus, UniProt P04925); conditions: cited from earlier work
PrP^Sc in ScN2a cells [2] = molecular target: T1, PrP^Sc in ScN2a cells; conditions: cited from earlier work; remark: listed apart in the source
PrP^Sc in ScN2a cells [3] = molecular target: T1, PrP^Sc in ScN2a cells; assay type: cell-based

T1 sequence (P04925 23-230 limits assumed): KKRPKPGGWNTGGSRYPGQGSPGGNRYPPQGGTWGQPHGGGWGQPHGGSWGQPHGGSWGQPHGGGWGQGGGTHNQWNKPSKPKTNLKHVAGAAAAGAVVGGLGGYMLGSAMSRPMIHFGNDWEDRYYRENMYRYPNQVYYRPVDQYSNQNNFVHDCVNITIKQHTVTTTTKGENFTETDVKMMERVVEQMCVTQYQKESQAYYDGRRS

Molecule | formation of PrP^Sc (PrP^Sc in ScN2a cells [1]) | reduction of pre-existing PrP^Sc levels (PrP^Sc in ScN2a cells [2]) | effect of lysosomotropic agent on ability of PEI to eliminate PrP^Sc (PrP^Sc in ScN2a cells [3]) | effect of lysosomotropic agent alone on PrP^Sc levels (PrP^Sc in ScN2a cells [2])
C[S+](C)[O-] [DMSO, dimethyl sulfoxide] | inhibit the formation of new PrP^Sc | cannot reduce pre-existing PrP^Sc levels |  | 
NH4Cl | do not interfere with the formation of PrP^Sc |  | failure of NH4Cl to affect PrP^Sc levels; also recorded: barely detectable amounts of PrP^Sc | have no effect on PrP^Sc levels
CC[C@@]1([C@@H]2O[C@@H]([C@H]3O[C@@](O)(CO)[C@H](C)C[C@@H]3C)C[C@@H]2C)CC[C@H]([C@]2(C)CC[C@]3(C[C@H](O)[C@@H](C)[C@@H]([C@@H](C)[C@@H](OC)[C@H](C)C(=O)O)O3)O2)O1 [monensin] | do not interfere with the formation of PrP^Sc |  |  | 
OCC(O)CO [glycerol] | inhibit the formation of new PrP^Sc | cannot reduce pre-existing PrP^Sc levels |  | 
CCN(CC)CCCC(C)Nc1ccnc2cc(Cl)ccc12 (centres unmarked) [chloroquine] | do not interfere with the formation of PrP^Sc |  | blocked the ability of PEI to eliminate PrP^Sc; also recorded: clear bands for PrP^Sc | have no effect on PrP^Sc levels

Source: patent publication US20020041862A1 (priority 1999, published 2002)
